Experiment [1] addresses T1, Microtubule-associated protein 1 light chain 3 beta (Homo sapiens, UniProt Q9GZQ8). The experiment can be described thus: Inhibition of LC3B (unknown origin) expressed in Escherichia coli BL21(DE3) incubated for 45 mins by AlphaScreen assay.
A short description of experiment [2]: Inhibition of GABARAP (unknown origin) expressed in Escherichia coli BL21(DE3) incubated for 45 mins by AlphaScreen assay. Details: species or system Homo sapiens.
Experiment [3] in a line: Binding affinity to GABARAP (unknown origin) assessed as dissociation constant by biolayer interferometry analysis. Details: species or system Homo sapiens. (In BLI a coated tip is dipped into the sample, and binding shifts an interference pattern.)
Experiment [4] addresses T1, Microtubule-associated protein 1 light chain 3 beta. The experiment can be described thus: Binding affinity against recombinant LC3B (unknown origin) assessed as dissociation constant by small molecule microarray with a scanning oblique-incidence reflectivity difference microscopic analysis.
Experiment [5] shares this target. The experiment can be described thus: Binding affinity against recombinant LC3B (unknown origin) assessed as dissociation constant by 2D-NMR titration assay.
For experiment [6] the target is unchanged. The experiment can be described thus: Binding affinity against recombinant LC3B (unknown origin) assessed as dissociation constant by surface plasmon resonance assay. (In general: In SPR one partner is held on a chip, and binding of the other changes the refractive index at the surface.)
Experiment [7] relates to Bacteria. The experiment can be described thus: Inhibition of beta-lactamase (unknown origin) at up to 25 uM incubated for 15 mins by beta-lactamase assay.

Our source for the IC50, Kd and inhibition values is ChEMBL document CHEMBL6153161, “Exploring Arylidene-Indolinone Ligands of Autophagy Proteins LC3B and GABARAP” (ACS Med Chem Lett, 2025).

SMILES strings stand for the structures.

Consider `O=C1Nc2ccc(I)cc2/C1=C\c1cncs1`, for which the IC50 in experiment [1] and in experiment [2] was above 3.5 µM throughout.

On to `O=C1Nc2ccc(I)cc2/C1=C\c1cccc2nccn12`, for which the IC50 in experiment [1] and in experiment [2] was above 12.5 µM each time.

`Cc1ncsc1/C=C1/C(=O)Nc2ccc(I)cc21` yielded an IC50 in experiment [2] above 14 µM.

As to `O=C1Nc2ccc(I)cc2/C1=C\c1ccccc1`, in experiment [2], the IC50 is above 25 µM.

As for `COc1ccc(/C=C2/C(=O)Nc3ccc(I)cc32)cc1`, the IC50 in experiment [1] and in experiment [2] was above 11 µM in each case.

With `O=C1Nc2ccccc2/C1=C\c1cc(Br)c(O)c(Br)c1`, the results for the IC50 in experiment [1] and in experiment [2] were 176 µM and 175 µM, respectively.

For the molecule `O=C1Nc2ccc(I)cc2/C1=C\c1ccc(C(=O)O)cc1`, the 50% inhibitory concentration (IC50) is 119 µM in experiment [1] and 75 µM in experiment [2].

For `O=C1Nc2ccc(Br)cc2/C1=C\c1cc(Br)c(O)c(Br)c1`, the IC50 in experiment [2] is 13 µM.

On to `O=C1Nc2ccc(I)cc2/C1=C\c1ccc(O)cc1`, for which the IC50 in experiment [1] and in experiment [2] was above 10 µM throughout.

On to `Cc1ccc2c(c1)NC(=O)/C2=C/c1cc(Br)c(O)c(Br)c1`, for which the IC50 in experiment [2] is 24 µM.

In the case of `O=C1Nc2ccc(I)cc2/C1=C\c1ccc[nH]1`, the IC50 in experiment [1] and in experiment [2] was above 1.8 µM each time.

As for `O=C1Nc2ccc(I)cc2/C1=C\c1cc(Br)cc(Br)c1`, the IC50 in experiment [2] is above 6.4 µM.

On to `O=C1Nc2cc(I)ccc2/C1=C\c1cc(Br)c(O)c(Br)c1`, for which the IC50 in experiment [2] is 12 µM.

For `CC(C)C[C@H](NC(=O)[C@H](Cc1c[nH]cn1)NC(=O)[C@H](CCC(=O)O)NC(=O)[C@H](Cc1c[nH]c2ccccc12)NC(=O)[C@@H](NC(=O)[C@H](Cc1ccc(O)cc1)NC(=O)[C@@H](NC(=O)[C@H](C)NC(=O)[C@H](CC(=O)O)NC(=O)CCCC[C@@H]1SC[C@@H]2NC(=O)N[C@@H]21)[C@@H](C)O)[C@@H](C)O)C(=O)N[C@@H](C)C(=O)N[C@@H](Cc1c[nH]c2ccccc12)C(=O)N1CCC[C@H]1C(=O)O`, the Kd in experiment [3] is 55 nM. Moreover, in experiment [2], the IC50 worked out at 0.055 µM.

On to `COC(=O)c1ccc2c(c1)NC(=O)/C2=C/c1cc(Br)c(O)c(Br)c1`, for which half-maximal inhibition in experiment [2] (IC50) required 5.7 µM. This lies in the single-digit micromolar range.

For the molecule `O=C1Nc2ccc(I)cc2/C1=C\c1cc(Br)c(O)c(Br)c1`, the IC50 in experiment [1] was determined as 4.4 µM; in experiment [2], 9.1 µM. The results for the Kd in experiment [4], in experiment [5] and in experiment [6] were 468 nM, above 200 µM and 8.9 µM, respectively. In experiment [7], the inhibition result was “No effect”.

With `O=C1Nc2cc(Cl)c(Cl)cc2/C1=C\c1cc(Br)c(O)c(Br)c1`, in experiment [2], the IC50 is above 25 µM.

On to `O=C1Nc2ccc(I)cc2/C1=C\c1ccc(-c2ccc(C(F)(F)F)cc2)cc1`, for which the IC50 in experiment [1] and in experiment [2] was above 1 µM each time.

`O=C1Nc2ccc(I)cc2/C1=C\c1cnc[nH]1`: the IC50 in experiment [2] was above 70 µM.

`O=C1Nc2ccc(I)cc2/C1=C\c1cc(Br)cc(Br)c1O` came in with an IC50 in experiment [2] of 15 µM.

By IC50 is commonly meant the point on the concentration scale where inhibition reaches its midpoint. By Kd is commonly meant the free concentration of one partner at which half of the binding sites on the other are occupied at equilibrium, for simple one-to-one binding.
